18 compounds from PubChem BioAssay AID230 (DTP/NCI, 2004) can be followed below.

Molecules are shown by their SMILES. Values joined by “and” are separate entries in the source; they are usually repeats but may differ in a detail not shown here. Identical values can stand only once. Toxic doses and inconclusive results are not listed.

In this experiment the test system is C3H/He mice, Gardner lymphosarcoma 6C3HED ip, survival T/C. As to the kind of experiment: NCI In Vivo Anticancer Drug Screen. Data for tumor model Lymphosarcoma Gardner 6C3HED (intraperitoneal) in C3H/He mice. The following applies: higher = longer survival. The procedure: The antitumor activity of compounds was measured in mice bearing transplantable tumors. Survival or tumor size were measured and the results are expressed as the measurement made in the treated group (T) divided by the measurement made in the vehicle treated control group (C). The tumor model used in this assay is Lymphosarcoma Gardner 6C3HED (intraperitoneal) in C3H/He mice

The mark [1] stands for this setting: endpoint: survival time, mean or median, dose: 5.0 mg/kg/injection, schedule: Q01DX010 (ip), vehicle: saline.
[2] abbreviates: endpoint: survival time, mean or median, dose: 20.0 mg/kg/injection, schedule: Q01DX010 (ip), vehicle: saline.
Setting [3] is: endpoint: survival time, mean or median, dose: 40.0 mg/kg/injection, schedule: Q01DX010 (ip), vehicle: saline.
Where [4] appears, read: endpoint: survival time, mean or median, dose: 25.0 mg/kg/injection, schedule: Q01DX010 (ip), vehicle: saline.
Setting [5] is: endpoint: survival time, mean or median, dose: 100.0 mg/kg/injection, schedule: Q01DX010 (ip), vehicle: saline.
The mark [6] stands for this setting: endpoint: median survival time, dose: 100.0 mg/kg/injection, schedule: Q01DX005 (ip), vehicle: water.
Where [7] appears, read: endpoint: median survival time, dose: 200.0 mg/kg/injection, schedule: Q01DX005 (ip), vehicle: water.
Setting [8] is: endpoint: survival time, mean or median, dose: 4.0 mg/kg/injection, schedule: Q01DX010 (ip), vehicle: saline.
[9] abbreviates: endpoint: survival time, mean or median, dose: 10.0 mg/kg/injection, schedule: Q01DX010 (ip), vehicle: saline.
The mark [10] stands for this setting: endpoint: survival time, mean or median, dose: 8.0 mg/kg/injection, schedule: Q01DX010 (ip), vehicle: saline.
The mark [11] stands for this setting: endpoint: survival time, mean or median, dose: 16.0 mg/kg/injection, schedule: Q01DX010 (ip), vehicle: saline.
[12] abbreviates: endpoint: survival time, mean or median, dose: 62.5 mg/kg/injection, schedule: Q01DX010 (ip), vehicle: saline.
[13] abbreviates: endpoint: survival time, mean or median, dose: 125.0 mg/kg/injection, schedule: Q01DX010 (ip), vehicle: saline.
The mark [14] stands for this setting: endpoint: survival time, mean or median, dose: 50.0 mg/kg/injection, schedule: Q01DX010 (ip), vehicle: saline.
The mark [15] stands for this setting: endpoint: survival time, mean or median, dose: 80.0 mg/kg/injection, schedule: Q01DX010 (ip), vehicle: saline.

In the case of `O=c1[nH]cc(F)c(=O)[nH]1`, the T/C was 222 % of control (endpoint: median survival time, dose: 13.3 mg/kg/injection, schedule: Q01DX009 (ip), vehicle: saline); 222 % of control (endpoint: median survival time, dose: 20.0 mg/kg/injection, schedule: Q01DX009 (ip), vehicle: saline); 203 % of control (endpoint: median survival time, dose: 27.0 mg/kg/injection, schedule: Q01DX009 (ip), vehicle: saline); 110 % of control under setting [1]; 283 % of control under setting [2]; 203 % of control under setting [3].

As to `CC(=O)Nc1ccc2nc3ccc(NC(C)=O)cc3[n+](-c3ccccc3)c2c1`, the T/C (endpoint: survival time, mean or median, dose: 12.5 mg/kg/injection, schedule: Q01DX010 (ip), vehicle: saline) was 107 % of control; the T/C under setting [4] is 107 % of control; the T/C under setting [5] was 89 % of control.

For the compound `NC(=O)CC(N)C(=O)O` (configuration not stated), the T/C is 92 % of control under setting [6]; 100 % of control under setting [7]; 92 % of control (endpoint: median survival time, dose: 400.0 mg/kg/injection, schedule: Q01DX005 (ip), vehicle: water); 92 % of control (endpoint: median survival time, dose: 800.0 mg/kg/injection, schedule: Q01DX005 (ip), vehicle: water).

As for `[I][Hg][CH2]C1COC([CH2][Hg][I])CO1` (configuration not stated), the T/C (endpoint: survival time, mean or median, dose: 1.56 mg/kg/injection, schedule: Q01DX010 (ip), vehicle: saline) is 93 % of control and the T/C (endpoint: survival time, mean or median, dose: 3.13 mg/kg/injection, schedule: Q01DX010 (ip), vehicle: saline) was 100 % of control.

In the case of `Nc1nc(=S)c2ncn(C3OC(CO)C(O)C3O)c2[nH]1` (configuration not stated), the T/C (endpoint: median survival time, dose: 0.5 mg/kg/injection, schedule: Q01DX009 (ip), vehicle: saline) is 114 % of control; the T/C (endpoint: median survival time, dose: 1.0 mg/kg/injection, schedule: Q01DX009 (ip), vehicle: saline) was 100 % of control; the T/C (endpoint: median survival time, dose: 2.0 mg/kg/injection, schedule: Q01DX009 (ip), vehicle: saline) is 105 % of control; the T/C (endpoint: median survival time, dose: 4.0 mg/kg/injection, schedule: Q01DX009 (ip), vehicle: saline) was 94 % of control; the T/C (endpoint: median survival time, dose: 8.0 mg/kg/injection, schedule: Q01DX009 (ip), vehicle: saline) was 96 % of control; the T/C (endpoint: survival time, mean or median, dose: 0.5 mg/kg/injection, schedule: Q01DX010 (ip), vehicle: saline) was 119 % of control. The T/C (endpoint: survival time, mean or median, dose: 1.0 mg/kg/injection, schedule: Q01DX010 (ip), vehicle: saline) was 112 % of control and 115 % of control; the T/C (endpoint: survival time, mean or median, dose: 2.0 mg/kg/injection, schedule: Q01DX010 (ip), vehicle: saline) was 100 % of control and 111 % of control; the T/C under setting [8] is 96 % of control.

As to `CC1CN1P(=S)(N1CC1C)N1CC1C` (configuration not stated), the T/C by setting is: (endpoint: survival time, mean or median, dose: 1.25 mg/kg/injection, schedule: Q01DX010 (ip), vehicle: saline) 103 % of control; (endpoint: survival time, mean or median, dose: 2.5 mg/kg/injection, schedule: Q01DX010 (ip), vehicle: saline) 100 % of control and 103 % of control; under setting [1], 92 % of control and 107 % of control; under setting [9], 100 % of control and 103 % of control; under setting [2], 107 % of control.

On to `[N-]=[N+]=CC(=O)CCC(N)C(=O)O` (configuration not stated), for which the T/C is 100 % of control and 105 % of control (endpoint: survival time, mean or median, dose: 0.03 mg/kg/injection, schedule: Q01DX010 (ip), vehicle: saline); 100 % of control and 118 % of control (endpoint: survival time, mean or median, dose: 0.05 mg/kg/injection, schedule: Q01DX010 (ip), vehicle: saline); 118 % of control and 120 % of control (endpoint: survival time, mean or median, dose: 0.1 mg/kg/injection, schedule: Q01DX010 (ip), vehicle: saline).

As for `CN1CC[C@]23c4c5ccc(O)c4O[C@H]2C(=O)CC[C@H]3[C@H]1C5`, the T/C was 103 % of control under setting [8]; 100 % of control under setting [10]; 103 % of control under setting [11]; 90 % of control and 100 % of control (endpoint: survival time, mean or median, dose: 32.0 mg/kg/injection, schedule: Q01DX010 (ip), vehicle: saline).

For the compound `NC(CC(=O)O)C(=O)O` (configuration not stated), the T/C (endpoint: median survival time, dose: 50.0 mg/kg/injection, schedule: Q01DX005 (ip), vehicle: water) was 88 % of control; the T/C under setting [6] was 92 % of control; the T/C under setting [7] is 92 % of control.

With `COc1ccc2c(c1OC)C(=O)O[C@@H]2[C@H]1c2c(cc3c(c2OC)OCO3)CCN1C`, the T/C is 90 % of control and 107 % of control (endpoint: survival time, mean or median, dose: 31.3 mg/kg/injection, schedule: Q01DX010 (ip), vehicle: saline); 100 % of control under setting [12]; 92 % of control under setting [13].

As to `CS(=O)(=O)OCCC(=O)N1CCN(C(=O)CCOS(C)(=O)=O)CC1`, the T/C under setting [14] was 207 % of control and 267 % of control.

As for `O=CN(O)CC(=O)O`, the T/C is, setting by setting: under setting [12], 96 % of control; under setting [13], 89 % of control; (endpoint: survival time, mean or median, dose: 250.0 mg/kg/injection, schedule: Q01DX010 (ip), vehicle: saline) 107 % of control; (endpoint: survival time, mean or median, dose: 500.0 mg/kg/injection, schedule: Q01DX010 (ip), vehicle: saline) 100 % of control.

As to `Cn1cnc([N+](=O)[O-])c1Sc1ncnc2nc[nH]c12`, the T/C reads like this: under setting [9], 86 % of control; under setting [2], 93 % of control; under setting [3], 86 % of control; under setting [15], 86 % of control.

For the compound `CC[C@@H](c1ccc(O)cc1)[C@@H](CC)c1ccc(O)cc1`, the T/C was 96 % of control (endpoint: survival time, mean or median, dose: 25.0 mg/kg/injection, schedule: Q01DX010 (sc), vehicle: water); 93 % of control (endpoint: survival time, mean or median, dose: 50.0 mg/kg/injection, schedule: Q01DX010 (sc), vehicle: water); 93 % of control (endpoint: survival time, mean or median, dose: 100.0 mg/kg/injection, schedule: Q01DX010 (sc), vehicle: water).

On to `Cn1c(N)nc2nc[nH]c2c1=S`, for which the T/C was 96 % of control and 103 % of control under setting [9]; 96 % of control and 107 % of control under setting [2]; 100 % of control and 107 % of control under setting [3]; 96 % of control under setting [15].

In the case of `CN(C)/N=N/c1nc[nH]c1C(N)=O`, the T/C is, setting by setting: under setting [4], 300 % of control; under setting [14], 300 % of control and 311 % of control; under setting [5], 266 % of control and 300 % of control; (endpoint: survival time, mean or median, dose: 200.0 mg/kg/injection, schedule: Q01DX010 (ip), vehicle: saline) 118 % of control and 296 % of control.

`CCCCn1cnc2c(=S)nc[nH]c21`: the T/C runs as follows: under setting [8], 100 % of control; under setting [10], 93 % of control; under setting [11], 90 % of control and 92 % of control.

Take `CO[C@@H]1[C@@H](OC2OC(C)C(OC3CC(C)(O)C(OC(=O)CC(C)C)C(C)O3)C(N(C)C)C2O)[C@@H](CC=O)C[C@@H](C)C(=O)/C=C/C2O[C@H]2C[C@@H](C)OC(=O)C[C@H]1OC(C)=O` (some centres not stated): the T/C runs as follows: (endpoint: survival time, mean or median, dose: 18.8 mg/kg/injection, schedule: Q01DX010 (ip), vehicle: saline) 94 % of control; (endpoint: survival time, mean or median, dose: 37.5 mg/kg/injection, schedule: Q01DX010 (ip), vehicle: saline) 102 % of control.
